Entries after “also recorded” stand apart in the source; their conditions may differ. Where a name gives a salt, the structure may show the parent alone.
Key:
[1] = biological target: T1, WT αSN oligomer (inter-protomeric) FRET biosensor in HEK293 cells (Homo sapiens, UniProt P37840); test: FLT dose response, WT oligomer (inter-protomeric) FRET biosensor; format: cell-based; settings: 1 nM to 50 μM
T1 construct: In addition to full-length αSN fusion constructs, we observe both C-terminally and N-terminally truncated αSN species; expressed in transfected cells; host or cells: HEK293
Method: Hits from the pilot HTS of the LOPAC library were selected and dispensed into 384-well plates to verify reproducible and specific FLT trends using the WT and A53T oligomer (inter-protomeric) FRET biosensors. Figure 6 presents a subset of these dose-response curves for hit compounds RO, BAY, SB206553, and DEM, along with known control compound EGCG. […] Assay quality was determined by Z′ (Eq. 2) where a Z′ > 0.5 indicates good assay quality. Using EGCG as control compound and the hit DEM, we calculated Z′ value of 0.76 and 0.66, respectively, indicating excellent assay quality.
Fig. 6 FRET dose response of pilot HTS hits. A subset of hits were evaluated using both WT (a) and A53T (b) oligomer biosensor to verify both increased FLT (disrupting αSN–αSN interactions) and decreased FLT (tighter aggregation or remodeled oligomers).
Compounds were tested in a FLT dose-response assay. The compound was dissolved to 10 mM in DMSO, then serially diluted in 96-well mother plates. Each hit was re-screened for FLT dose response across eight concentrations (1 nM to 50 μM). Compounds (0.5 μL) were transferred from mother plates into assay plates using a Mosquito HV liquid handler (TTP Labtech Ltd, UK). The preparations for αSN FRET biosensors were carried out as above.

[2] = system: differentiated SH-SY5Y cells treated with sonicated human αSN PFF; test: Differentiated SH-SY5Y cell model of αSN PFF pathology (pS129 immunoblot); format: cell-based; settings: 1 μM compound, 200 nM human PFF, 48 h; for total pS129 signal (words): relative to DMSO
Method: SH-SY5Y cells were differentiated using reduced serum (3%) media supplemented with 10 μM retinoic acid for 3 days and then changed to serum-free media supplemented with 10 ng/mL brain-derived neurotrophic factor for the remainder of the experiment. Stock αSN PFFs were diluted and sonicated as described previously. SH-SY5Y cultures were then treated with 200 nM PFF and PBS, DMSO, 1 μM drug compound (RO, BAY, or DEM), or 50 μM Baicalin. After 48 h, SH-SY5Y were washed with PBS and harvested in cold lysis buffer with protease and phosphatase inhibitors, as previously described. Approximately 15 μg of total protein was loaded onto a 4–20% Criterion TGX midi gel and probed using Syn1 (BD Biosciences, #610787; 1° 1:5000; 2° 1:10K) and pS^129 aSyn (abcam, ab59264; 1° 1:1000; 2° 1:5000) and a-tubulin (abcam, ab4074; 1° 1:1000; 2° 1:10K) page 19: Supplemental Figure 18. […] Differentiated SH-SY5Y cells were treated with PBS, vehicle (DMSO) or compounds with and without 200nM sonicated human αSN PFFs. […] These will be removed in subsequent densitometry analysis. (b) Replicates of PFF +/- compound treatment were ran for immunoblot analysis of pS129 immunoreactivity. (c) Densitometry analysis was performed using ImageLab from BioRad. Total pS129 signal (excluding the non- specific bands) was normalized to tubulin loading control. […] Quantification is normalized per lane to highlight change in the ratio of different species. Note, oligomers quantification is plotted relative to the right-y- axis. All statistical comparisons were to DMSO treatment using two-tailed t-test with * p<0.05; ** p<0.01; *** p<0.005.

[3] = biological target: T2, αSN oligomers (Homo sapiens, UniProt P37840); test: ThT content (β-sheet) of αSN oligomers after oligomerization assay; format: biochemical; settings: 70 μM compound (1:5 compound:monomer), 12 h oligomerization; vs DMSO
T2 construct: made in house; host or cells: Escherichia coli BL21(DE3), T7-7 plasmid
Method: To explore the presence of β-sheet content in these oligomers, an aliquot was removed prior to cross-linking, diluted into 100 μM ThT working solution, and ThT fluorescence was monitored to detect the presence of β-sheet. Supplementary Fig. 22 presents each sample ThT content normalized to the PFF signal. We observed an increased ThT content in the αSN oligomers (αS-O) that was not affected by DMSO (vehicle) treatment.
A 10-μL aliquot from each sample was taken and diluted with 290 μL ThT working solution (100 μM ThT in PBS) and dispensed into 3 wells of a 384-well, black opaque plate. Additional samples of PBS, αSN(m), and αSN PFF were used as controls. Plates were incubated at ambient temperature for 10 min and then fluorescence read at 450ex/490em on a Spectromax-i3x (Molecular Devices).
Supplemental Figure 22. Characterization of β-sheet content in αSN oligomers due to hit compound
After the 12-hour oligomerization assay aliquots of each sample were
removed and diluted in 100μM ThT and fluorescence read in triplicate (450ex/490em) in 384-well plates. The
ThT signal was normalized to a signal from previously frozen αSN PFF aliquots. After completion of the
PFF, green bar) and the ThT signal was not affected by DMSO (red bar). Oligomerization in the presence of
control compounds, EGCG and Baicalin, at 70μM (a sub-stoichiometric,1:5 compound: monomer ratio)
Our hit compounds RO, DEM, and BAY had differential effects with
both DEM and BAY resulting in increased ThT content and RO not producing a significant change relative to
(1 picture or pasted object on this page, not shown here)

SMILES	FLT trend in dose response [1]	HMW pS129 assemblies [2]	LMW oligomer pS129 fraction [2]	monomeric pS129 fraction [2]	total pS129 signal (words) [2]	ThT signal of αSN oligomers [3]	total pS129 signal (words) ([2]; listed as Bay)
Nc1ccc(-c2nc3ccc(-c4nc5ccc(N)cc5[nH]4)cc3[nH]2)cc1 [RO, Ro 90–7501]	reduced FLT	increase HMW assemblies	significantly reduced	significant reduction	significant reduction; also recorded: significant decrease	no effect	–
CN(C)[C@@H]1C(O)=C(C(N)=O)C(=O)[C@@]2(O)C(O)=C3C(=O)c4c(O)ccc(Cl)c4[C@@H](O)[C@H]3C[C@@H]12 [DEM, Demeclocycline HCl]	reduced FLT	increase HMW assemblies	significantly reduced	significant reduction	non-significant change	increased the ThT signal	–
COC(=O)C1=C(C)NC(C)=C([N+](=O)[O-])C1c1ccccc1C(F)(F)F (racemic) [BAY, (±)-Bay K 8644]	reduced FLT	increase HMW assemblies	not BAY, reduce oligomers	significant reduction	significant increase	increased the ThT signal	increased pS129 signal

— article PMC8238948, “Potent inhibitors of toxic alpha-synuclein identified via cellular time-resolved FRET biosensors” (NPJ Parkinson's Disease, 2021)
